These results are taken from PubChem BioAssay (NCI).

“And” between values parts separate entries of the source, which are not always exact repeats. Equal values may be shown once.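 These data come from cells grown in 96-well plates and exposed to compound for 48 hours at five concentrations. GI50 = concentration required for 50% inhibition of growth. TGI: concentration producing complete growth inhibition.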

Some test systems named below: HT29 colon; IGROV1 ovarian; LOX IMVI melanoma; MDA-MB-231 breast; MOLT-4 leukemia; SF-268 CNS; SK-MEL-2 melanoma; SK-MEL-5 melanoma; U251 CNS; UO-31 renal.
Assay in all cases: NCI tumour cell line growth inhibition, 48 h

As to `O=C(/C=C/N1CCN(c2cccc(C(F)(F)F)c2)CC1)c1ccc(Cl)cc1Cl`, the GI50 in the experiment with HT29 colon was 38.6 µM; in the experiment with IGROV1 ovarian, 30 µM; in the experiment with LOX IMVI melanoma, 22.7 µM; with MDA-MB-231 breast it was 26.8 µM; in the experiment with MOLT-4 leukemia, 28.8 µM; in the experiment with SF-268 CNS, 28.6 µM. The GI50 is 37.5 µM in the experiment on SK-MEL-2 melanoma, 19.2 µM in the experiment on SK-MEL-5 melanoma, 26.1 µM in the experiment with U251 CNS and 31.3 µM in the experiment on UO-31 renal. The TGI in the experiment on HT29 colon is greater than 100 µM; in the experiment on IGROV1 ovarian it was 58.2 µM; in the experiment on LOX IMVI melanoma, 47.1 µM; with MDA-MB-231 breast, 59.8 µM; in the experiment on MOLT-4 leukemia, 70.2 µM; in the experiment with SF-268 CNS, 88.8 µM. Also, the TGI was greater than 100 µM in the experiment on SK-MEL-2 melanoma, 36.9 µM with SK-MEL-5 melanoma, 59.8 µM in the experiment on U251 CNS and greater than 100 µM in the experiment on UO-31 renal.
In the case of `O=C1c2c(O)cccc2C(C(=O)CCCCC(=O)C2c3cccc(O)c3C(=O)c3c(O)cccc32)c2cccc(O)c21`, the GI50 with HT29 colon is 1.77 µM; in the experiment with IGROV1 ovarian, 0.664 µM and 1.37 µM; in the experiment on LOX IMVI melanoma, 1.56 µM; in the experiment with MOLT-4 leukemia, 1.8 µM; in the experiment on SF-268 CNS it was 2.25 µM; with SK-MEL-2 melanoma, 1.24 µM. Besides, the values for the GI50 with SK-MEL-5 melanoma, with U251 CNS and with UO-31 renal were 1.09 µM, 1.02 µM and 1.11 µM, respectively. For the same compound, the TGI in the experiment on HT29 colon was 1.67 µM and 5.67 µM; in the experiment on IGROV1 ovarian, 1.74 µM and 3.7 µM; in the experiment with LOX IMVI melanoma it was 2.74 µM and 5.08 µM; in the experiment with MDA-MB-231 breast, 0.9 µM; with MOLT-4 leukemia it was 5.42 µM and 9.97 µM; in the experiment on SF-268 CNS, 2.39 µM and 6.86 µM. Also, the TGI was 1.22 µM and 2.46 µM in the experiment with SK-MEL-2 melanoma; 0.921 µM and 2.04 µM with SK-MEL-5 melanoma; 1.01 µM and 2.22 µM with U251 CNS; 1.01 µM and 2.38 µM in the experiment with UO-31 renal.
For `CC[C@]12C=CCN3CC[C@]4(C(=C(C(=O)OC)C1)Nc1cc(O)ccc14)[C@@H]32`, the GI50 in the experiment with HT29 colon was 19.9 µM; in the experiment with IGROV1 ovarian, 19.1 µM; with LOX IMVI melanoma it was 13.6 µM; with MDA-MB-231 breast, 13.8 µM; in the experiment on MOLT-4 leukemia it was 21.6 µM; in the experiment on SF-268 CNS, 20.7 µM. Moreover, the GI50 is 18.2 µM in the experiment with SK-MEL-2 melanoma, 14.8 µM in the experiment with SK-MEL-5 melanoma, 15.6 µM with U251 CNS and 12.9 µM in the experiment with UO-31 renal. Further, the TGI is 63.1 µM with HT29 colon; 57.3 µM in the experiment on IGROV1 ovarian; 26.7 µM in the experiment with LOX IMVI melanoma; 41.6 µM with MDA-MB-231 breast; 74.2 µM in the experiment with MOLT-4 leukemia; 53.2 µM in the experiment on SF-268 CNS. For the same compound, the TGI with SK-MEL-2 melanoma is 48.6 µM; in the experiment on SK-MEL-5 melanoma it was 28.3 µM; with U251 CNS, 36.9 µM; in the experiment on UO-31 renal it was 25.8 µM.
`CO[C@H]1C=C[C@]23c4cc5c(cc4CN(CC2O)[C@@H]3C1)OCO5` (some centres undefined): the TGI was determined as 39.7 µM in the experiment with HT29 colon; 26 µM in the experiment with IGROV1 ovarian; 21.3 µM in the experiment with LOX IMVI melanoma; 34.6 µM with MDA-MB-231 breast; 8.97 µM in the experiment on MOLT-4 leukemia; 32.7 µM in the experiment with SF-268 CNS. The TGI is 6.31 µM in the experiment with SK-MEL-2 melanoma, 17.8 µM with SK-MEL-5 melanoma, 38.3 µM in the experiment with U251 CNS and 8.47 µM with UO-31 renal.
On to `COc1ccc2nc3ccc(OC)cc3c(SCCCN)c2c1`, for which the GI50 was 1.91 µM in the experiment with HT29 colon; 8.46 µM with IGROV1 ovarian; 2.22 µM in the experiment on LOX IMVI melanoma; 9.78 µM with MDA-MB-231 breast; 2.2 µM in the experiment on MOLT-4 leukemia; 4.67 µM with SF-268 CNS. Further, the GI50 was 6.05 µM in the experiment with SK-MEL-2 melanoma, 7.82 µM with SK-MEL-5 melanoma, 9.09 µM with U251 CNS and 3.91 µM in the experiment with UO-31 renal. For the same compound, the TGI came out at 4.07 µM with HT29 colon; 27.2 µM in the experiment on IGROV1 ovarian; 5.26 µM with LOX IMVI melanoma; 25.3 µM in the experiment on MDA-MB-231 breast; 6.34 µM with MOLT-4 leukemia; 14.5 µM in the experiment with SF-268 CNS. Also, the TGI is 11.7 µM in the experiment with SK-MEL-2 melanoma, 25.7 µM in the experiment on SK-MEL-5 melanoma, greater than 67.3 µM with U251 CNS and 18.3 µM in the experiment with UO-31 renal.
Turning to `C/C(=C(/c1ccc(O)cc1)c1ccc(OCCN2CCCC2)cc1)c1ccccc1`, the GI50 was 1.35 µM with HT29 colon; 6.8 µM in the experiment on IGROV1 ovarian; 1.72 µM in the experiment on LOX IMVI melanoma; 3.51 µM with MDA-MB-231 breast; 2.94 µM in the experiment with MOLT-4 leukemia; 5.58 µM with SF-268 CNS. The GI50 in the experiment on SK-MEL-2 melanoma was 1.97 µM; in the experiment with SK-MEL-5 melanoma, 1.72 µM; in the experiment with U251 CNS, 2.24 µM; in the experiment with UO-31 renal it was 1.87 µM. Moreover, the TGI turned out to be 3.2 µM in the experiment with HT29 colon; 27 µM in the experiment with IGROV1 ovarian; 3.29 µM in the experiment on LOX IMVI melanoma; 8.4 µM in the experiment with MDA-MB-231 breast; 11 µM with MOLT-4 leukemia; 20.7 µM in the experiment on SF-268 CNS. Also, the TGI stood at 3.95 µM with SK-MEL-2 melanoma, 3.1 µM with SK-MEL-5 melanoma, 5.49 µM with U251 CNS and 5.72 µM in the experiment with UO-31 renal.
In the case of `CN1CCCC1c1cccnc1.O=C(O)c1ccccc1O.O=C([O-])c1ccccc1[OH2+].O=C([O-])c1ccccc1[OH2+].O=C([O-])c1ccccc1[OH2+].[Mn+2]` (centres undefined), the GI50 with HT29 colon was greater than 100 µM; in the experiment on IGROV1 ovarian, 97.7 µM; in the experiment with LOX IMVI melanoma, greater than 100 µM; in the experiment with MDA-MB-231 breast, greater than 100 µM; in the experiment with MOLT-4 leukemia, 19.9 µM; in the experiment with SF-268 CNS, 22.3 µM. Moreover, the GI50 in the experiment with SK-MEL-2 melanoma, in the experiment with SK-MEL-5 melanoma, with U251 CNS and in the experiment on UO-31 renal was greater than 100 µM throughout. Besides, the TGI in the experiment with HT29 colon was greater than 100 µM; in the experiment on IGROV1 ovarian, greater than 100 µM; with LOX IMVI melanoma, greater than 100 µM; with MDA-MB-231 breast it was greater than 100 µM; in the experiment on MOLT-4 leukemia, greater than 100 µM; with SF-268 CNS, 73.4 µM. The TGI in the experiment on SK-MEL-2 melanoma, in the experiment with SK-MEL-5 melanoma, with U251 CNS and in the experiment on UO-31 renal was greater than 100 µM each time.
